3 compounds from patent US11597704B2, “2,4-diaminoquinazoline derivatives and medical uses thereof” (Janssen Sciences Ireland Unlimited Company, priority 2018, dated 2023) can be followed below.

One test addresses T1, human TLR7 (Homo sapiens, UniProt Q9NYK1).
T1 construct: expressed in transfected cells; host or cells: HEK293
T1 sequence (Q9NYK1 27-1049): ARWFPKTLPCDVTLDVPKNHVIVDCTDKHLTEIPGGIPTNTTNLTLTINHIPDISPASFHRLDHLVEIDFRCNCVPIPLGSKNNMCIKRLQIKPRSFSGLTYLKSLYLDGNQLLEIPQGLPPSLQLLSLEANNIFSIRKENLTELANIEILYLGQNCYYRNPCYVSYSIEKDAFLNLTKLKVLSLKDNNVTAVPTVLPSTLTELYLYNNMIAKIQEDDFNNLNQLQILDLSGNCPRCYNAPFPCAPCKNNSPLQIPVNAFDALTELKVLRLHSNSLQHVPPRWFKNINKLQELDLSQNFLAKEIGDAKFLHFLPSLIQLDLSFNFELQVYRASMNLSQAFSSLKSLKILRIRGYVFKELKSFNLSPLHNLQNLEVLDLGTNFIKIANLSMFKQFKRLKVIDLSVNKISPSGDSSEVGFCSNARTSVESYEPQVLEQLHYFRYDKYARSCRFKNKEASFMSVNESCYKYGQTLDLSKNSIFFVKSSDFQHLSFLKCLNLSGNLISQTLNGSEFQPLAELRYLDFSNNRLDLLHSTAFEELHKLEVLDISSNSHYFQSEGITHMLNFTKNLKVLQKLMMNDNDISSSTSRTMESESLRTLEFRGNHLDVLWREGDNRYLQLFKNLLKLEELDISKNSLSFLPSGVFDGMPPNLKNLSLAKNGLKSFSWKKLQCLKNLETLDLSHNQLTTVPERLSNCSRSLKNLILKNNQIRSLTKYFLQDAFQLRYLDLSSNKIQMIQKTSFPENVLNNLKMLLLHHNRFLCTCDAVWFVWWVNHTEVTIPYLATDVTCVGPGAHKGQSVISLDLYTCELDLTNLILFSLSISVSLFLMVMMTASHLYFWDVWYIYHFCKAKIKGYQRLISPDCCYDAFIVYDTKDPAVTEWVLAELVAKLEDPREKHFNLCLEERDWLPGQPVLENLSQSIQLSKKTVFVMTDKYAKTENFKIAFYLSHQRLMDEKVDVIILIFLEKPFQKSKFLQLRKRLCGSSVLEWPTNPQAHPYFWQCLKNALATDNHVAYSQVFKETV
Nature of the test: TLR7 NFκB-luc cellular reporter assay in transiently transfected HEK293 cells. It is filed as cell-based. The conditions noted are these: lowest effective concentration; HEK293 cells transfected with wild type TLR7 and NFκB-luc reporter, 6 h incubation. The method, then: (§1) The ability of compounds to activate human TLR7 and/or TLR8 was assessed in a cellular reporter assay using HEK293 cells transiently transfected with a TLR7 or TLR8 expression vector and NFκB-luc reporter construct. In one instance, the TLR expression construct expresses the respective wild type sequence or a mutant sequence comprising a deletion in the second leucine-rich repeat of the TLR.
(§2) HEK293 cells were grown in culture medium (DMEM supplemented with 10% FCS and 2 mM Glutamine). For transfection of cells in 10 cm dishes, cells were detached with Trypsin-EDTA, transfected with a mix of CMV-TLR7 or TLR8 plasmid (750 ng), NFκB-luc plasmid (375 ng) and a transfection reagent and incubated 24 h at 37° C. in a humidified 5% C02 atmosphere. Transfected cells were then detached with Trypsin-EDTA, washed in PBS and re-suspended in medium to a density of 1.67×10^5 cells/mL. Thirty microliters of cells were then dispensed into each well in 384-well plates, where 10 μL of compound in 4% DMSO was already present. Following 6 h incubation at 37° C., 5% CO2, the luciferase activity was determined by adding 15 μl of STEADY LITE PLUS substrate (PERKIN ELMER) to each well and readout performed on a VIEWLUX ULTRAHTS microplate imager (PERKIN ELMER). Dose response curves were generated from measurements performed in quadruplicates. Lowest effective concentrations (LEC) values, defined as the concentration that induces an effect which is at least two-fold above the standard deviation of the assay, were determined for each compound.

Another test has as its target T2, human TLR8 (Homo sapiens, UniProt Q9NR97).
T2 construct: expressed in transfected cells; host or cells: HEK293
T2 sequence (Q9NR97 27-1041): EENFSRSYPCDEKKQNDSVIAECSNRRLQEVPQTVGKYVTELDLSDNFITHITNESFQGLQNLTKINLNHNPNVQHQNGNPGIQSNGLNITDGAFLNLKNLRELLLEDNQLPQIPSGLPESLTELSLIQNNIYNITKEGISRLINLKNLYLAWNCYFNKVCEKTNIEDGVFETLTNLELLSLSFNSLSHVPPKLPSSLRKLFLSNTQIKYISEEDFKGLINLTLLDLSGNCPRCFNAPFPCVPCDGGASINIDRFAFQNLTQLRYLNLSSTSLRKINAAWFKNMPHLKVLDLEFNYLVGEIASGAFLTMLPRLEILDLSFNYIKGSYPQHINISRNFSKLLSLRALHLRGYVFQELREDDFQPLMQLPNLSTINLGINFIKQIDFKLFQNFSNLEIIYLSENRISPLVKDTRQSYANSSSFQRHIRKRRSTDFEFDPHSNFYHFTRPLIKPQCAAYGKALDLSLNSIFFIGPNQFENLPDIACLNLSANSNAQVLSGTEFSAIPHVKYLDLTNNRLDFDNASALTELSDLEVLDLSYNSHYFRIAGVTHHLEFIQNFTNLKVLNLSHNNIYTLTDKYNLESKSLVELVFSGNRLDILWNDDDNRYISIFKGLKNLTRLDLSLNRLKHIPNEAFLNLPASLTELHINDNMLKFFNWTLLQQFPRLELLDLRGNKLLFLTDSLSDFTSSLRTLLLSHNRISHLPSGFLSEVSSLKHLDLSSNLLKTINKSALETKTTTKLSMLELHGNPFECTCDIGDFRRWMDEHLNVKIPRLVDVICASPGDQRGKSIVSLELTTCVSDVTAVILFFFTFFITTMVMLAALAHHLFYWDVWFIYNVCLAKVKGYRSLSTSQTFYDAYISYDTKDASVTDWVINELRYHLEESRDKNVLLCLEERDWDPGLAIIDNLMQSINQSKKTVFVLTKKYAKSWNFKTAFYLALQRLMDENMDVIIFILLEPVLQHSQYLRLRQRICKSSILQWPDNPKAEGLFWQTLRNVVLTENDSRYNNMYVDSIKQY
Nature of the test: TLR8 NFκB-luc cellular reporter assay in transiently transfected HEK293 cells. It is filed as cell-based. Conditions: lowest effective concentration; HEK293 cells transfected with wild type TLR8 and NFκB-luc reporter, 6 h incubation. The method, then: as §1, §2

Molecules are shown by their SMILES.

The compound `CCCC[C@H](CO)Nc1nc(N)nc2cc(C(F)(F)F)ccc12` [Compound 24, (R)-2-((2-amino-7-(trifluoromethyl)quinazolin-4-yl)amino)hexan-1-ol] registered a hTLR7-wt (LEC) on human TLR7 of 3.36 µM. Besides, the hTLR8-wt (LEC) at human TLR8 turned out to be 0.35 µM.

Consider `CCCC[C@H](CO)Nc1nc(N)nc2cc(C(=O)N(C)C)ccc12` [Compound 25, (R)-2-amino-4-((1-hydroxyhexan-2-yl)amino)-N,N-dimethylquinazoline-7-carboxamide], for which, at human TLR7, the hTLR7-wt (LEC) is > 100 µM. On human TLR8, this compound yielded a hTLR8-wt (LEC) of 3.89 µM.

Turning to `CCCC[C@H](CO)Nc1nc(N)nc2c(C)ccc(F)c12` [Compound 26, (R)-2-((2-amino-5-fluoro-8-methylquinazolin-4-yl)amino)hexan-1-ol], the hTLR7-wt (LEC) at human TLR7 was > 100 µM. Also, at human TLR8, the hTLR8-wt (LEC) was 0.57 µM.
